Results reported in patent US6762171B1, “Fatty acid CoA thioester inhibitory substance of PPARα and PPARγ” (Kyorin Pharmaceutical Co, Ltd., priority 2002, dated 2004).

What was measured:
[1] = target: T1, human-type PPAR α ligand-binding domain (Homo sapiens, UniProt Q07869); assay: Competition binding with [3H]KRP-297 to 6×His-hPPARα ligand-binding domain; settings: for Binding to the ligand-binding domain of PPARα: competition with 100 nM [3H]KRP-297, test concentration not given; for Binding to PPAR α ligand-binding domain, in words: competition with [3H]KRP-297
T1 construct: made in house; host or cells: Escherichia coli
T1 sequence (Q07869 239-466 limits assumed): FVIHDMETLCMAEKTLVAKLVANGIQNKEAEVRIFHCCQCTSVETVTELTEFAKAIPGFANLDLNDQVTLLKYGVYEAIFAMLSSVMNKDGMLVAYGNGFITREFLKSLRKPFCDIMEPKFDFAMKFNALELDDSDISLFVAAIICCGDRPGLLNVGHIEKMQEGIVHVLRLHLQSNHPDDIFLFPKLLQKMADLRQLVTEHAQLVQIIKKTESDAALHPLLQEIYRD
Text: (§1) Proteins (6×His-hPPARs LBD) tagged 6-copy histidine to the side of N-termini in the ligand-binding domains of human-type PPAR α and PPAR γ were expressed in Escherichia coli, respectively, and purified through a nickel column.

[2] = target: T2, human-type PPAR γ ligand-binding domain (Homo sapiens, UniProt P37231); assay: Competition binding with [3H]KRP-297 to 6×His-hPPARγ ligand-binding domain; settings: for Binding to the ligand-binding domain of PPARγ: competition with 100 nM [3H]KRP-297, test concentration not given; for Binding to PPAR γ ligand-binding domain, in words: competition with [3H]KRP-297
T2 construct: made in house; host or cells: Escherichia coli
T2 sequence (P37231 238-503 limits assumed): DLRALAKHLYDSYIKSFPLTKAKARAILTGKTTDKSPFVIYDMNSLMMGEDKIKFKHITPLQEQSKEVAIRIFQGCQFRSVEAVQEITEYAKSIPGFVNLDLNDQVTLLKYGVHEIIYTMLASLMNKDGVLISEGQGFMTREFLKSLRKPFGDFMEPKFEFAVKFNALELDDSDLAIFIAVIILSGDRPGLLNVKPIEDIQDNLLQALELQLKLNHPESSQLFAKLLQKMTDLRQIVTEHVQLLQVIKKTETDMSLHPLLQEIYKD
Text: as §1

[3] = target: T3, Human PPARα ligand-binding domain and SRC-1 (Homo sapiens, UniProt Q07869); assay: Conjugate formation between PPARα LBD and [35S]SRC-1; assay type: biochemical
T3 construct: made in house; host or cells: Escherichia coli (PPAR LBD); in vitro translation, TNT, Promega (SRC-1)
T3 sequence (Q07869 239-466 limits assumed): T1 sequence (Q07869 239-466 limits assumed)
Method: (§2) [35S]methionine-labeled form of SRC-1 containing 2-copy of LXXLL motif was prepared in vitro (TNTR, Promega Co., Madison, Wis.). 6×His-hPPARs LBD protein was incubated for 60 minutes at 4° C. in 50 mM Tris-HCl buffer (pH 7.4) containing 50 mM KCl and 1 mM dithiothreitol and 0.1% bovine serum albumin in the presence or absence of testing compound. Thereafter, […] of anti-6×His antibody (QIAGEN Co., Germany) were added and the mixture was incubated for 60 minutes at 4° C. Successively, […] of protein G Sepharose (Falmasia Biotech Co., Sweden) were added and the mixture was incubated for 60 minutes at 4° C. After washed thrice by centrifugation, protein G Sepharose was dissolved with […] of SDS-sample buffer, 20% SDS-PAGE, and then [35S]SRC-1 was detected by means of autography.

[4] = target: T4, Human PPARγ ligand-binding domain and SRC-1 (Homo sapiens, UniProt P37231); assay: Conjugate formation between PPARγ LBD and [35S]SRC-1; assay type: biochemical
T4 construct: made in house; host or cells: Escherichia coli (PPAR LBD); in vitro translation, TNT, Promega (SRC-1)
T4 sequence (P37231 238-503 limits assumed): T2 sequence (P37231 238-503 limits assumed)
Method: as §2

SMILES: CCCCCCCC/C=C\CCCCCCCC(=O)SCCNC(=O)CCNC(=O)[C@H](O)C(C)(C)COP(=O)(O)OP(=O)(O)OC[C@H]1O[C@@H](n2cnc3c(N)ncnc32)[C@H](O)[C@@H]1OP(=O)(O)O [Oleoyl CoA]
- Binding to the ligand-binding domain of PPARα [1]: 95%
- Binding to PPAR α ligand-binding domain, in words [1]: ligand
- Binding to the ligand-binding domain of PPARγ [2]: 52%
- Binding to PPAR γ ligand-binding domain, in words [2]: ligand

SMILES: CCCCCCCCCCCCCCCC(=O)SCCNC(=O)CCNC(=O)[C@H](O)C(C)(C)COP(=O)(O)OP(=O)(O)OC[C@H]1O[C@@H](n2cnc3c(N)ncnc32)[C@H](O)[C@@H]1OP(=O)(O)O [Palmitoyl CoA]
- Binding to the ligand-binding domain of PPARα [1]: 83%
- Binding to PPAR α ligand-binding domain, in words [1]: ligand
- Binding to the ligand-binding domain of PPARγ [2]: 72%
- Binding to PPAR γ ligand-binding domain, in words [2]: ligand

SMILES: CCCCCCCCCCCCCCCCCC(=O)SCCNC(=O)CCNC(=O)[C@H](O)C(C)(C)COP(=O)(O)OP(=O)(O)OC[C@H]1O[C@@H](n2cnc3c(N)ncnc32)[C@H](O)[C@@H]1OP(=O)(O)O [Stearoyl CoA]
- Binding to the ligand-binding domain of PPARα [1]: 94%
- Binding to PPAR α ligand-binding domain, in words [1]: ligand
- Binding to the ligand-binding domain of PPARγ [2]: 89%
- Binding to PPAR γ ligand-binding domain, in words [2]: ligand

SMILES: CCCCCCCCCCCCCC(=O)SCCNC(=O)CCNC(=O)[C@H](O)C(C)(C)COP(=O)(O)OP(=O)(O)OC[C@H]1O[C@@H](n2cnc3c(N)ncnc32)[C@H](O)[C@@H]1OP(=O)(O)O [Myristoyl CoA]
- Binding to the ligand-binding domain of PPARα [1]: 70%
- Binding to PPAR α ligand-binding domain, in words [1]: ligand
- Binding to the ligand-binding domain of PPARγ [2]: 45%
- Binding to PPAR γ ligand-binding domain, in words [2]: ligand

SMILES: CCCCC/C=C\C/C=C\CCCCCCCC(=O)SCCNC(=O)CCNC(=O)[C@H](O)C(C)(C)COP(=O)(O)OP(=O)(O)OC[C@H]1O[C@@H](n2cnc3c(N)ncnc32)[C@H](O)[C@@H]1OP(=O)(O)O [Linoleoyl CoA]
- Binding to the ligand-binding domain of PPARα [1]: 92%
- Binding to PPAR α ligand-binding domain, in words [1]: ligand
- Binding to the ligand-binding domain of PPARγ [2]: 59%
- Binding to PPAR γ ligand-binding domain, in words [2]: ligand
- Conjugate formation between PPARα LBD and SRC-1 ([3]; KRP-297 30 μM, Linoleoyl CoA 3 μM (0 μM: 6.1 ± 1.7)): 5.5 ± 1.5
- Conjugate formation between PPARα LBD and SRC-1 ([3]; KRP-297 30 μM, Linoleoyl CoA 10 μM (0 μM: 6.1 ± 1.7)): 4.4 ± 0.8
- Conjugate formation between PPARα LBD and SRC-1 ([3]; KRP-297 30 μM, Linoleoyl CoA 30 μM (0 μM: 6.1 ± 1.7)): 1.4 ± 0.1
- Conjugate formation between PPARα LBD and SRC-1 ([3]; KRP-297 30 μM, Linoleoyl CoA 100 μM (0 μM: 6.1 ± 1.7)): 0.9 ± 0.3
- Inhibition of conjugate formation of SRC-1 with PPAR α, in words ([3]; conjugate formation due to ligands KRP-297 and linoleic acid): dose-dependently inhibited
- Conjugate formation between PPARα LBD and SRC-1 ([3]; linoleic acid 30 μM, Linoleoyl CoA 3 μM (0 μM: 5.3 ± 1.9)): 6.1 ± 2.2
- Conjugate formation between PPARα LBD and SRC-1 ([3]; linoleic acid 30 μM, Linoleoyl CoA 10 μM (0 μM: 5.3 ± 1.9)): 2.4 ± 0.8
- Conjugate formation between PPARα LBD and SRC-1 ([3]; linoleic acid 30 μM, Linoleoyl CoA 30 μM (0 μM: 5.3 ± 1.9)): 1.2 ± 0.4
- Conjugate formation between PPARα LBD and SRC-1 ([3]; linoleic acid 30 μM, Linoleoyl CoA 100 μM (0 μM: 5.3 ± 1.9)): 0.9 ± 0.3
- Conjugate formation between PPARγ LBD and SRC-1 ([4]; BRL-49653 30 μM, Linoleoyl CoA 3 μM (0 μM: 4.8 ± 0.7)): 4.9 ± 0.6
- Conjugate formation between PPARγ LBD and SRC-1 ([4]; BRL-49653 30 μM, Linoleoyl CoA 10 μM (0 μM: 4.8 ± 0.7)): 4.8 ± 1.9
- Conjugate formation between PPARγ LBD and SRC-1 ([4]; BRL-49653 30 μM, Linoleoyl CoA 30 μM (0 μM: 4.8 ± 0.7)): 1.5 ± 0.5
- Conjugate formation between PPARγ LBD and SRC-1 ([4]; BRL-49653 30 μM, Linoleoyl CoA 100 μM (0 μM: 4.8 ± 0.7)): 1.0 ± 0.1
- Inhibition of conjugate formation of SRC-1 with PPAR γ, in words ([4]; conjugate formation due to ligands BRL-49,653 and linoleic acid): dose-dependently inhibited
- Conjugate formation between PPARγ LBD and SRC-1 ([4]; linoleic acid 30 μM, Linoleoyl CoA 3 μM (0 μM: 4.5 ± 0.7)): 4.2 ± 0.3
- Conjugate formation between PPARγ LBD and SRC-1 ([4]; linoleic acid 30 μM, Linoleoyl CoA 10 μM (0 μM: 4.5 ± 0.7)): 2.7 ± 1.1
- Conjugate formation between PPARγ LBD and SRC-1 ([4]; linoleic acid 30 μM, Linoleoyl CoA 30 μM (0 μM: 4.5 ± 0.7)): 1.9 ± 0.8
- Conjugate formation between PPARγ LBD and SRC-1 ([4]; linoleic acid 30 μM, Linoleoyl CoA 100 μM (0 μM: 4.5 ± 0.7)): 1.3 ± 0.4

SMILES: CCCCC/C=C/C=C1/C(=O)C=C[C@@H]1C/C=C\CCCC(=O)O [15-Deoxy-Δ^12,14-prostaglandin J2, 15-deoxy-Δ^12,14-prostaglandin J2, reference compound]
- Binding to the ligand-binding domain of PPARγ [2]: 93%

SMILES: CCCCC/C=C\C/C=C\C/C=C\C/C=C\CCCC(=O)SCCNC(=O)CCNC(=O)[C@H](O)C(C)(C)COP(=O)(O)OP(=O)(O)OC[C@H]1O[C@@H](n2cnc3c(N)ncnc32)[C@H](O)[C@@H]1OP(=O)(O)O [Arachidonoyl CoA]
- Binding to the ligand-binding domain of PPARα [1]: 54%
- Binding to PPAR α ligand-binding domain, in words [1]: ligand
- Binding to the ligand-binding domain of PPARγ [2]: 46%
- Binding to PPAR γ ligand-binding domain, in words [2]: ligand

SMILES: CCCCC/C=C\C/C=C\C=C\[C@@H](O)C/C=C\CCCC(=O)O [8(S)-Hydroxyeicosatetraenoic acid, 8(S)-hydroxyeicosatetraenoic acid, reference compound]
- Binding to the ligand-binding domain of PPARα [1]: 99%
